Measurements published in patent US8445405B2, “Synergistic herbicidal compositions containing aminopyralid, 2,4-dichlorophenoxyacetic acid and atrazine” (Dow AgroSciences, LLC., priority 2010, dated 2013).

What was measured:
[1] = tested on: bur-cucumber (Sicyos angulatus, SIYAN); experiment: Field trial, post-emergence weed control in corn (Jalisco, Mexico), visual rating; assay type: in vivo
Procedure: (§1) These trials were conducted under normal corn crop conditions. Trial sites were located in commercially grown corn in the Jalisco (Mexico) area. The corn crop was grown using normal cultural practices for fertilization, seeding, and maintenance to ensure good growth of the crop and the weeds. The trials were conducted using normal research methodology. Trial plots were between 6 to 7 meters (m) wide by 10 m long. All treatments were applied using a randomized complete block trial design with 3 or 4 replications per treatment. The trial sites had naturally occurring populations of weeds. The weed spectrum included, but was not limited to, redroot pigweed (Amaranthus retroflexus, AMARE), bur-cucumber (Sicyos angulatus, SIYAN). Treatments consisted of tank mixes of Tronador™ herbicide and atrazine applied in water. The application volumes were between 250 to 300 liters per hectare (L/ha). All applications were made using precision gas hand sprayers using a 3 m boom using flat fan 8002 nozzles to broadcast the treatments on the weeds.
(§2) The treated plots and control plots were rated blind at various intervals after application. Ratings were based on Percent (%) Visual weed control, where 0 corresponds to no injury and 100 corresponds to complete kill.
(§3) Colby's equation was used to determine the herbicidal effects expected from the mixtures (Colby, S. R. Weeds 1967, 15, 20-22. Calculation of the synergistic and antagonistic response of herbicide combinations).
(§4) The following equation was used to calculate the expected activity of mixtures containing two active ingredients, A and B: Expected=A+B−(A×B/100)
(§5) A=observed efficacy of active ingredient A at the same concentration as used in the mixture.
(§6) B=observed efficacy of active ingredient B at the same concentration as used in the mixture.

[2] = tested on: redroot pigweed (Amaranthus retroflexus, AMARE); experiment: as above; assay type: in vivo
Procedure: as §1, §2, §3, §4, §5, §6

[3] = 15 days after application, Atrazine 450 g ai/ha
[4] = 15 days after application, Atrazine 900 g ai/ha
[5] = 30 days after application, Atrazine 450 g ai/ha
[6] = 30 days after application, Atrazine 900 g ai/ha
[7] = 45 days after application, Atrazine 450 g ai/ha
[8] = 45 days after application, Atrazine 900 g ai/ha
[9] = 60 days after application, Atrazine 450 g ai/ha
[10] = 60 days after application, Atrazine 900 g ai/ha

Compound: CCNc1nc(Cl)nc(NC(C)C)n1 [Atrazine, 6-chloro-N-ethyl-N′-(1-methylethyl)-1,3,5-triazine-2,4-diamine]
- SIYAN Obs - Percent control observed [1, 3]: 27.5%
- SIYAN Obs - Percent control observed [1, 4]: 42.5%
- SIYAN Obs - Percent control observed [1, 5]: 36.3%
- SIYAN Obs - Percent control observed [1, 6]: 60%
- SIYAN Obs - Percent control observed [1, 7]: 56.3%
- SIYAN Obs - Percent control observed [1, 8]: 66.3%
- SIYAN Obs - Percent control observed [1, 9]: 53.8%
- SIYAN Obs - Percent control observed [1, 10]: 65%
- AMARE Obs - Percent control observed [2, 3]: 35%
- AMARE Obs - Percent control observed [2, 4]: 46.3%
- AMARE Obs - Percent control observed [2, 5]: 77.5%
- AMARE Obs - Percent control observed [2, 6]: 82.5%
- AMARE Obs - Percent control observed [2, 7]: 91.3%
- AMARE Obs - Percent control observed [2, 8]: 94.8%
- AMARE Obs - Percent control observed [2, 9]: 91.3%
- AMARE Obs - Percent control observed [2, 10]: 97%
